Experiments:
Format in all cases: functional, cell-based
Vero [1] = assay: In vitro antiviral activity against HSV-2 in vero cells by a plaque reduction assay at concentration up to 10 ug/mL; devoid of activity; details: Chlorocebus sabaeus
Vero [2] = assay: In vitro antiviral activity against HSV-1 in vero cells by a plaque reduction assay at concentration up to 10 ug/mL; devoid of activity; details: Chlorocebus sabaeus
MT4 = assay: In vitro […] against HIV-1 in MT-4 cells by indirect an immunofluorescence assay at concentration up to 100 ug/mL; devoid of activity; details: Homo sapiens

Measured: Activity

Nc1ncnc2c1ncn2C1OC(/C=C/P(=O)(O)O)C1CO (configuration not stated)
devoid of activity: Vero [1] | Vero [2] | MT4

Nc1ncnc2c1ncn2C1OC(C(O)P(=O)(O)O)C1CO (configuration not stated)
devoid of activity: Vero [1] | Vero [2] | MT4

Nc1ncnc2c1ncn2C1OC(CCP(=O)(O)O)C1CO (configuration not stated)
devoid of activity: Vero [1] | Vero [2] | MT4

Nc1ncnc2c1ncn2C1OC(CCCP(=O)(O)O)C1CO (configuration not stated)
devoid of activity: Vero [1] | Vero [2] | MT4
